Experiments:
Test in all cases: Kinase selectivity, scanMAX Kinase assay panel (DiscoverX), % control at 1 uM
Format in all cases: binding
[1] = biological target: T1, scanMAX Kinase assay panel (Homo sapiens, UniProt Q05655); details: PRKCD; 1 uM; read-out: Percent Control (%)
T1 construct: purchased DiscoverX
In short: (§1)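 1 uM cpd (DMSO) per kinase; % ctrl = [cpd − pos ctrl]/[neg ctrl − pos ctrl] × 100; hit if <35.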

[2] = biological target: T2, scanMAX Kinase assay panel (Homo sapiens, UniProt Q02156); details: PRKCE; 1 uM; read-out: Percent Control (%)
T2 construct: purchased DiscoverX
T2 sequence (Q02156 1-737): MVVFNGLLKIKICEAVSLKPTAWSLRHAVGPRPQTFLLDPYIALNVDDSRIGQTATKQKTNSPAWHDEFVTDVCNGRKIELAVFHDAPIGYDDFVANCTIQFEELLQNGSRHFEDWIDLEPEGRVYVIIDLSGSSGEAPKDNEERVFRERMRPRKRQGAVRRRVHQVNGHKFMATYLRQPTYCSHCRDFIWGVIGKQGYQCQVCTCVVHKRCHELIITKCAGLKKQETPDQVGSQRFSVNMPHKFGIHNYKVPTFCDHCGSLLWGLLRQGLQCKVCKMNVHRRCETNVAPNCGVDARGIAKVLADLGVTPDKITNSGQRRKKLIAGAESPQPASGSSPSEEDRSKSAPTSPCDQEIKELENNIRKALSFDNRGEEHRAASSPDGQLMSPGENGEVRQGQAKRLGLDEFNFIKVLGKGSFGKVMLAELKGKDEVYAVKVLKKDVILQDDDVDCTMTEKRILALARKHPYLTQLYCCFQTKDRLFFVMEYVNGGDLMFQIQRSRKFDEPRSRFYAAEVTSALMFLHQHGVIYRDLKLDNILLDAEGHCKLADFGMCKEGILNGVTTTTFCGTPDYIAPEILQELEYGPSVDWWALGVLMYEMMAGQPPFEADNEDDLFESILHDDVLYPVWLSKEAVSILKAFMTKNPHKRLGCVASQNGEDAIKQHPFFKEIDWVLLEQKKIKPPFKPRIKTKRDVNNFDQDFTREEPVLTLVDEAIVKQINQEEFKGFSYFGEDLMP
In short: as §1

[3] = biological target: T3, scanMAX Kinase assay panel (Homo sapiens, UniProt Q9Y4K4); details: MAP4K5; 1 uM; read-out: Percent Control (%)
T3 construct: purchased DiscoverX
T3 sequence (Q9Y4K4 whole entry): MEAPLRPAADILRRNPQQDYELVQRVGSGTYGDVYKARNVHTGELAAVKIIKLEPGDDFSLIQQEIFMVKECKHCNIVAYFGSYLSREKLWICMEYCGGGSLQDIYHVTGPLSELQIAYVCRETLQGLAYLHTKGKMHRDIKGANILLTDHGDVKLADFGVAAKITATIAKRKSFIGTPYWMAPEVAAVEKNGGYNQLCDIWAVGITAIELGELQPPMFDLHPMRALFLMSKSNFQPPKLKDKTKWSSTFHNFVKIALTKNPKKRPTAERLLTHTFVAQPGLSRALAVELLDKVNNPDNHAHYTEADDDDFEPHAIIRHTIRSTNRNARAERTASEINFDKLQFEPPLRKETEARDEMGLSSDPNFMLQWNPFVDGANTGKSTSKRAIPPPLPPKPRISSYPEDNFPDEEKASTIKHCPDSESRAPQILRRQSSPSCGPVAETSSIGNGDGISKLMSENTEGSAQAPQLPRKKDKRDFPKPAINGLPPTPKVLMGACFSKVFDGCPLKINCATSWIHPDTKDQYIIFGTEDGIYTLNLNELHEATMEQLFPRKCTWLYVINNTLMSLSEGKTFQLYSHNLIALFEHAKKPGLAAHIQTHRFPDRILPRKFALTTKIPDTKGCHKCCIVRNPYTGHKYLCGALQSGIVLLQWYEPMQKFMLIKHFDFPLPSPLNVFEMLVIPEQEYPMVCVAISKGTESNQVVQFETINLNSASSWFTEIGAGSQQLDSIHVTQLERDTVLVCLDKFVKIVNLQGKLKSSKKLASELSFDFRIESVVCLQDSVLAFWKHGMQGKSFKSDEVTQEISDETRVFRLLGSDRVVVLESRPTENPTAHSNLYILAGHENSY
In short: as §1

[4] = biological target: T4, scanMAX Kinase assay panel (Homo sapiens, UniProt Q02750); details: MEK1; 1 uM; read-out: Percent Control (%)
T4 construct: purchased DiscoverX
T4 sequence (Q02750 whole entry): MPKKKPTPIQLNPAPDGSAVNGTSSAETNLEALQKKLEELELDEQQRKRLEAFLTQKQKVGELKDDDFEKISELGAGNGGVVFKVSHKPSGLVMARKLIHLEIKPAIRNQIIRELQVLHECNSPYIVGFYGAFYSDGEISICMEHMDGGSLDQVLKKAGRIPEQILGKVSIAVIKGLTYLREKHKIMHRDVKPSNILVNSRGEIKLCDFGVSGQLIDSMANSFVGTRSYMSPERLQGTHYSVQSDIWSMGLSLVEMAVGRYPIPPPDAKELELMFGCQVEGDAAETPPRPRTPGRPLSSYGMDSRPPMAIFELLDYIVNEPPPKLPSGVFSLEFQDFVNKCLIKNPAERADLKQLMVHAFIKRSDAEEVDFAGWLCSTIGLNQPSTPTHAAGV
In short: as §1

[5] = biological target: T5, scanMAX Kinase assay panel (Homo sapiens, UniProt P23443); details: S6K1; 1 uM; read-out: Percent Control (%)
T5 construct: purchased DiscoverX
T5 sequence (P23443 whole entry): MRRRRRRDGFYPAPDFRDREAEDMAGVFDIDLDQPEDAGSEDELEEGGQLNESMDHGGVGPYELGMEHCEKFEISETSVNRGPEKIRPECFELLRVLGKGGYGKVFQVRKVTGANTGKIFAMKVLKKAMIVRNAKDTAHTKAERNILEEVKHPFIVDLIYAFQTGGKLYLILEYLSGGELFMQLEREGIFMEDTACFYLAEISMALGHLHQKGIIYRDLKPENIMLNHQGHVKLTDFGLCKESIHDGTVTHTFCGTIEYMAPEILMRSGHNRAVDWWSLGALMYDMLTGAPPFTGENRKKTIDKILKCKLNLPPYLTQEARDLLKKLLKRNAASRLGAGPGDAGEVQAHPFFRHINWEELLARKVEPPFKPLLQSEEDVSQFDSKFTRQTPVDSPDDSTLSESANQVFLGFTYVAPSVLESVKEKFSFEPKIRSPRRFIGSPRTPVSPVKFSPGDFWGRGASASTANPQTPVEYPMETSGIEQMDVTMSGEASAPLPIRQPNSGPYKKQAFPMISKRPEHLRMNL
In short: as §1

[6] = biological target: T6, scanMAX Kinase assay panel (Homo sapiens, UniProt Q00537); details: PCTK2; 1 uM; read-out: Percent Control (%)
T6 construct: purchased DiscoverX
T6 sequence (Q00537 whole entry): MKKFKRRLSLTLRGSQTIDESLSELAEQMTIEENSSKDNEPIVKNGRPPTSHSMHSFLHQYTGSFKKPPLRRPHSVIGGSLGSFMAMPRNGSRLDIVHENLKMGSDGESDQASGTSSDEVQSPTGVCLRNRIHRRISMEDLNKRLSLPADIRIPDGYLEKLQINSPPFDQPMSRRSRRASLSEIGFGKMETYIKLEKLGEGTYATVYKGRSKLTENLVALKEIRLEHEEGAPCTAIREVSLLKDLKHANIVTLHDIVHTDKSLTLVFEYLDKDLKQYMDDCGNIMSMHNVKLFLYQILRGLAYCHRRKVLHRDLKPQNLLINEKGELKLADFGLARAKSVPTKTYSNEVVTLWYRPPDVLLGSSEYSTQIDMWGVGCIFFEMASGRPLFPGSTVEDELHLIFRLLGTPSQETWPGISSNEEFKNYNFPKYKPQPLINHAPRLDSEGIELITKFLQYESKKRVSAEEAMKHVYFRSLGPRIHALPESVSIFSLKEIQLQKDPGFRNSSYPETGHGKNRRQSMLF
In short: as §1

[7] = biological target: T7, scanMAX Kinase assay panel (Homo sapiens, UniProt P45984); details: JNK2; 1 uM; read-out: Percent Control (%)
T7 construct: purchased DiscoverX
T7 sequence (P45984 whole entry): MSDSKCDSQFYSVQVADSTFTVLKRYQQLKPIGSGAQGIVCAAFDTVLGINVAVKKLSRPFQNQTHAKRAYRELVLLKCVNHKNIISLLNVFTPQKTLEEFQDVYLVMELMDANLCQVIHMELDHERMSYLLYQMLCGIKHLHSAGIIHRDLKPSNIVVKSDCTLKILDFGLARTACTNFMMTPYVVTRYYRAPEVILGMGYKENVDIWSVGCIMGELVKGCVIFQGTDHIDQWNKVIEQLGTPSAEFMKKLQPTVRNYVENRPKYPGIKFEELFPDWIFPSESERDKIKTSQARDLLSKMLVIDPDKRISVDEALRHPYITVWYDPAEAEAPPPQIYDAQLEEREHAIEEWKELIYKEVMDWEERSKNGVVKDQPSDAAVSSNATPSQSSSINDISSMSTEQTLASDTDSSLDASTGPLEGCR
In short: as §1

[8] = biological target: T8, scanMAX Kinase assay panel (Homo sapiens, UniProt Q9Y6R4); details: MAP3K4; 1 uM; read-out: Percent Control (%)
T8 construct: purchased DiscoverX
T8 sequence (Q9Y6R4 whole entry): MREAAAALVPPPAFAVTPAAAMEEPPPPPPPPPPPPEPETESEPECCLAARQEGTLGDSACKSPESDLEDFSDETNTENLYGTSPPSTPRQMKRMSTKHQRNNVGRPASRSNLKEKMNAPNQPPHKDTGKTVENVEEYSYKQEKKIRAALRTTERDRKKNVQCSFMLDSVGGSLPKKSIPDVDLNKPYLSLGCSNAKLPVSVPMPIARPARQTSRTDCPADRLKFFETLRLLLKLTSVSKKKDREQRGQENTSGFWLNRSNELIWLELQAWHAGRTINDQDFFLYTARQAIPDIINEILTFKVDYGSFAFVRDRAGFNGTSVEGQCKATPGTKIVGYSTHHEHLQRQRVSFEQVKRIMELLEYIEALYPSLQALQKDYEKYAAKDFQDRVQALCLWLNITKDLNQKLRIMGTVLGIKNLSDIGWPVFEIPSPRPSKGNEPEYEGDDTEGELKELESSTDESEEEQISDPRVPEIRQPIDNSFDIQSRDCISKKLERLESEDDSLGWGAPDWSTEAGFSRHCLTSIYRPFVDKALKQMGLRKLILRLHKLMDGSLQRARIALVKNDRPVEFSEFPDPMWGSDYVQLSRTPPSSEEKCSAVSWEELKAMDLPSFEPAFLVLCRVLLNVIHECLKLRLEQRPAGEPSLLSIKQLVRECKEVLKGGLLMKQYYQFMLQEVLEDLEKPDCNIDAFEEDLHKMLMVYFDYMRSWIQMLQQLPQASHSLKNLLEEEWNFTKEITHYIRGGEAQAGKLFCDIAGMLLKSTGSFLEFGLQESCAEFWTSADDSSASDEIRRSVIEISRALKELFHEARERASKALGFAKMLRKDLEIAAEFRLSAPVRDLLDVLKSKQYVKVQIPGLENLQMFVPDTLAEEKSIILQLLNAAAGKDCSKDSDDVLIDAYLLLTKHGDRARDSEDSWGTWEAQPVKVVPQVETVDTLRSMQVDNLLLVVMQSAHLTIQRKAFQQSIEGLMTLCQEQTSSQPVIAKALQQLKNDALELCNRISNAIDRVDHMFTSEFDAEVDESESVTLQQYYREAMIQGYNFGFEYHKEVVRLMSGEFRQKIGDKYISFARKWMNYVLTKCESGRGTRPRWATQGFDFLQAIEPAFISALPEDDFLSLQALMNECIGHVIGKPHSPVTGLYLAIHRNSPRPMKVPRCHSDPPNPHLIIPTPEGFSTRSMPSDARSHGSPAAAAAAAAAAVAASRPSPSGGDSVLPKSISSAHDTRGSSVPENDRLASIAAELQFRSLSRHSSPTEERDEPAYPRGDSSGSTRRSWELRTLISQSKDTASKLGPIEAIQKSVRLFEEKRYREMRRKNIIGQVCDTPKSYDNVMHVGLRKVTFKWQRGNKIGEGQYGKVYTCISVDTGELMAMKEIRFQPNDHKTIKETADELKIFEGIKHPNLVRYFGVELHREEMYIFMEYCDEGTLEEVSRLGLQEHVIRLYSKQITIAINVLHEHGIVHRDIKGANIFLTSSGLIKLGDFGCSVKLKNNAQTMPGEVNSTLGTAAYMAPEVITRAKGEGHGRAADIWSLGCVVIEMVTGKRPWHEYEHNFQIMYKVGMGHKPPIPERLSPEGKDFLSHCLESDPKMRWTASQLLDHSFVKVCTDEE
In short: as §1

[9] = biological target: T9, scanMAX Kinase assay panel (Homo sapiens, UniProt Q8IU85); details: CAMK1D; 1 uM; read-out: Percent Control (%)
T9 construct: purchased DiscoverX
In short: as §1

[10] = biological target: T10, scanMAX Kinase assay panel (Homo sapiens, UniProt Q9UBE8); details: NLK; 1 uM; read-out: Percent Control (%)
T10 construct: purchased DiscoverX
T10 sequence (Q9UBE8 1-527): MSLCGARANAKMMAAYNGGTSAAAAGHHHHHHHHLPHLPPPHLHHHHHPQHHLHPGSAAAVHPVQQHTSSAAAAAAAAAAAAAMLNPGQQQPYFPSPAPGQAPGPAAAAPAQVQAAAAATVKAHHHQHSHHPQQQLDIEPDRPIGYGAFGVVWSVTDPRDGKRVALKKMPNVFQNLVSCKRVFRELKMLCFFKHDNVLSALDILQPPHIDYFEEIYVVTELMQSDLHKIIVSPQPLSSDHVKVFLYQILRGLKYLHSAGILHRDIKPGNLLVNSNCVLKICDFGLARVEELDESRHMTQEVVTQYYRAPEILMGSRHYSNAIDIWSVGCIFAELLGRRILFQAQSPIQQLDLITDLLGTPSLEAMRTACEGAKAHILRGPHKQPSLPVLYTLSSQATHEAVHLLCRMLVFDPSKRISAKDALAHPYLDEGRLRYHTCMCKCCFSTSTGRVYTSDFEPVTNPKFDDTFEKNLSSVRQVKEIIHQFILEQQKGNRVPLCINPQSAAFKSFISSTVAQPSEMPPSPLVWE
In short: as §1

T1 sequence (Q05655 whole entry): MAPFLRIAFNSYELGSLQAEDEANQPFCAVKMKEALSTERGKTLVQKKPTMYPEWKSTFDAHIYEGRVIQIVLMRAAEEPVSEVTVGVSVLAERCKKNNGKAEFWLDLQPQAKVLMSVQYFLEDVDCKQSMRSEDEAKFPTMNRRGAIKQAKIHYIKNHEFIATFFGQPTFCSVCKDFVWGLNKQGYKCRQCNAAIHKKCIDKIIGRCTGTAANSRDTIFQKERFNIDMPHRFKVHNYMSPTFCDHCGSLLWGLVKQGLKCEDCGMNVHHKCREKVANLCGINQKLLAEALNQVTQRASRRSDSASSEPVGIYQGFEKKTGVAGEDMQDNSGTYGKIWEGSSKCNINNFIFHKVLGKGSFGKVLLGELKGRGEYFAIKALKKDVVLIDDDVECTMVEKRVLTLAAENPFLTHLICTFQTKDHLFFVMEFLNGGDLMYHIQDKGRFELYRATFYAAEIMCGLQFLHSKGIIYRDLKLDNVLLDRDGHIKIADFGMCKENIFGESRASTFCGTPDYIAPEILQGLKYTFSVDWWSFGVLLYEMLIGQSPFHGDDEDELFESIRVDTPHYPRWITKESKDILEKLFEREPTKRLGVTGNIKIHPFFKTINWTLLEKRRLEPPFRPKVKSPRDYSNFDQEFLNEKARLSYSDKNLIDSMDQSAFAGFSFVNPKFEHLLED

| SMILES | remaining binding at 1 µM [1] [%] | remaining binding at 1 µM [2] [%] | remaining binding at 1 µM [3] [%] | remaining binding at 1 µM [4] [%] | remaining binding at 1 µM [5] [%] | remaining binding at 1 µM [6] [%] | remaining binding at 1 µM [7] [%] | remaining binding at 1 µM [8] [%] | remaining binding at 1 µM [9] [%] | remaining binding at 1 µM [10] [%] |
| --- | --- | --- | --- | --- | --- | --- | --- | --- | --- | --- |
| Cc1ccc(C(=O)Nc2ccc(CN3CCN(C)CC3)c(C(F)(F)F)c2)cc1C#Cc1cnc2c(Nc3cnn(C)c3)cccn12 [Example 1, 4-methyl-3-((8-((1-methyl-1H-pyrazol-4-yl)amino)imidazo[1,2-a]pyridin-3-yl)ethynyl)-N-(4-((4-methylpiperazin-1-yl)methyl)-3-(trifluoromethyl)phenyl)benzamide] | 61 | 67 | 1 | 100 | 14 | 19 | 0 | 70 | 65 | 24 |
| Cc1cn(-c2cc(NC(=O)c3ccc(C)c(C#Cc4cnc5c(Nc6cnn(C)c6)cccn45)c3)cc(C(F)(F)F)c2)cn1 [Example 12, 4-methyl-N-(3-(4-methyl-1H-imidazol-1-yl)-5-(trifluoromethyl)phenyl)-3-((8-((1-methyl-1H-pyrazol-4-yl)amino)imidazo[1,2-a]pyridin-3-yl)ethynyl)benzamide] | 81 | 71 | 12 | 100 | 100 | 98 | 66 | 92 | 82 | 15 |
| Cc1ccc(NC(=O)C2(C(=O)Nc3ccc(F)cc3)CC2)cc1C#Cc1cnc2c(Nc3cnn(C(C)C)c3)cccn12 [Example 78] | 100 | 90 | 82 | 100 | 100 | 100 | 100 | 90 | 98 | 50 |

Reference: patent US10870647B2, “Imidazopyridine derivative, method for preparing same, and pharmaceutical composition containing same as active ingredient for preventing or treating cancer” (DAEGU-GYEONGBUK MEDICAL INNOVATION FOUNDATION, priority 2016, dated 2020)
